Measurements reported in patent US20240158446A1, “CYCLIC COMPOUND HAVING SELECTIVE INHIBITORY ACTION ON KRAS OVER HRAS AND NRAS” (CHUGAI SEIYAKU KABUSHIKI KAISHA, priority 2021, published 2024).

What was measured:
[1] = biological target: GDP-bound NRAS wild-type protein (Homo sapiens, UniProt P01111); experiment: Binding to NRAS by surface plasmon resonance (SPR), Single Cycle Kinetics; conditions: SPR, GDP-bound NRAS wild-type protein vs GDP-bound KRAS wild-type protein
[2] = biological target: GDP-bound KRAS wild-type protein (Homo sapiens, UniProt P01116); experiment: Binding to KRAS by surface plasmon resonance (SPR), Single Cycle Kinetics; conditions: SPR, Single Cycle Kinetics, GDP-bound KRAS wild-type protein; read-out: KRAS KD
[3] = system: human lung cancer strain NCI-H441;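 also: cell proliferation inhibition after four days measured by CellTiter-Glo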
[4] = biological target: GDP-bound HRAS wild-type protein (Homo sapiens, UniProt P01112); experiment: Binding to HRAS by surface plasmon resonance (SPR), Single Cycle Kinetics; conditions: SPR, GDP-bound HRAS wild-type protein vs GDP-bound KRAS wild-type protein
Chain of GDP-bound HRAS wild-type protein (P01112 whole entry): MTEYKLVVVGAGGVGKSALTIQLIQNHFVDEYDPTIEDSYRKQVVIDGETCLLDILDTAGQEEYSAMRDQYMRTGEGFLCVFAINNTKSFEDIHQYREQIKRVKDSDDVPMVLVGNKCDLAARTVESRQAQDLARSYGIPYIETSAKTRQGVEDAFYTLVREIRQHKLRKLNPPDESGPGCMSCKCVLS

Chain of GDP-bound NRAS wild-type protein (P01111 whole entry): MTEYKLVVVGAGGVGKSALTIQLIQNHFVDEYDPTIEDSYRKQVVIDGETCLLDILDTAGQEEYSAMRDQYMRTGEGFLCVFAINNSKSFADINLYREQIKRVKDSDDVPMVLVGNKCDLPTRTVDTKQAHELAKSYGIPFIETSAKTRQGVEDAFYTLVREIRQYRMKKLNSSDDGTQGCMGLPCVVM
Chain of GDP-bound KRAS wild-type protein (P01116 whole entry): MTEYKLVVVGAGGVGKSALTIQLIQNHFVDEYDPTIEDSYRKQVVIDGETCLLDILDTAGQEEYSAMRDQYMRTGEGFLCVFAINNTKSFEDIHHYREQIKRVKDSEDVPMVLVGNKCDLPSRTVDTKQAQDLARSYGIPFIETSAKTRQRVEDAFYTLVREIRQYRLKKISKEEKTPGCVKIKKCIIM

| SMILES | Kd [2] [nM] | IC50 [3] [nM] | NRAS/KRAS (ratio of KD value for NRAS to KD value for KRAS) [1] | HRAS/KRAS (ratio of KD value for HRAS to KD value for KRAS) [4] |
| --- | --- | --- | --- | --- |
| CCO[C@@H]1C[C@H]2C(=O)NC3(CC(C)(C)C3)C(=O)N(C)[C@@H](C(CC)CC)C(=O)N(C)[C@H](C(=O)N(C)C)CC(=O)N(C)[C@@H](C(C)C)C(=O)N[C@@H]([C@@H](C)CC)C(=O)N(C)CC(=O)N(C)[C@H]3C/C=C\CCN(C3=O)[C@@H](CC3CCC(F)(F)CC3)C(=O)N(C)CC(=O)N[C@@H](CCc3cc(F)c(C(F)(F)F)c(F)c3)C(=O)N2C1 [PP2481] | 1.6 | 33.6 | A (a compound having 10 or more and less than 20 is denoted as A) | A (a compound having 10 or more and less than 20 is denoted as A) |
| CCO[C@@H]1C[C@H]2C(=O)NC3(CC(C)(C)C3)C(=O)N(C)[C@@H](C(CC)CC)C(=O)N(C)[C@H](C(=O)N(C)C)CC(=O)N(C)[C@@H](CC3CC3)C(=O)N[C@@H]([C@@H](C)CC)C(=O)N(C)CC(=O)N(C)[C@H]3C/C=C\CCN(C3=O)[C@@H](CC3CCC(F)(F)CC3)C(=O)N(C)CC(=O)N[C@@H](CCc3cc(F)c(C(F)(F)F)c(F)c3)C(=O)N2C1 [PP2485] | 0.78 | 55.5 | A (a compound having 10 or more and less than 20 is denoted as A) | A (a compound having 10 or more and less than 20 is denoted as A) |
| CCOC[C@H]1C(=O)N[C@@H]([C@@H](C)CC)C(=O)N(C)CC(=O)N(C)[C@H]2C/C=C\CCN(C2=O)[C@@H](CC2CCCCC2)C(=O)N(C)CC(=O)N[C@@H](CCc2ccc(C(F)(F)F)c(Cl)c2)C(=O)N2C[C@H](OCC)C[C@H]2C(=O)NC2(CC(C)(C)C2)C(=O)N(C)[C@@H](C(CC)CC)C(=O)N(C)[C@H](C(=O)N(C)C)CC(=O)N1C [PP2488] | 1.6 | 171 | A (a compound having 10 or more and less than 20 is denoted as A) | A (a compound having 10 or more and less than 20 is denoted as A) |

Now from value to molecule, other results behind:

| Kd [2] [nM] | IC50 [3] [nM] | SMILES | NRAS/KRAS (ratio of KD value for NRAS to KD value for KRAS) [1] | HRAS/KRAS (ratio of KD value for HRAS to KD value for KRAS) [4] |
| --- | --- | --- | --- | --- |
| 0.84 | 30.5 | CCO[C@@H]1C[C@H]2C(=O)NC3(CC(C)(C)C3)C(=O)N(C)[C@@H](C(CC)CC)C(=O)N(C)[C@H](C(=O)N(C)C)CC(=O)N(C)[C@@H](CC3CC3)C(=O)N[C@@H]([C@@H](C)CC)C(=O)N(C)CC(=O)N(C)[C@H]3C/C=C\CCN(C3=O)[C@@H](CC3CCC(F)(F)CC3)C(=O)N(C)CC(=O)N[C@@H](CCc3ccc(C(F)(F)F)c(OC)c3)C(=O)N2C1 [PP2480] | A (a compound having 10 or more and less than 20 is denoted as A) | A (a compound having 10 or more and less than 20 is denoted as A) |
| 0.93 | 23.8 | CCC[C@H]1C(=O)N[C@@H]([C@@H](C)CC)C(=O)N(C)CC(=O)N(C)[C@H]2C/C=C\CCN(C2=O)[C@@H](CC2CCC(F)(F)CC2)C(=O)N(C)CC(=O)N[C@@H](CCc2ccc(C(F)(F)F)c(OC)c2)C(=O)N2C[C@H](OCC)C[C@H]2C(=O)NC2(CC(C)(C)C2)C(=O)N(C)[C@@H](C(CC)CC)C(=O)N(C)[C@H](C(=O)N(C)C)CC(=O)N1C [PP2482] | A (a compound having 10 or more and less than 20 is denoted as A) | A (a compound having 10 or more and less than 20 is denoted as A) |
| 1.6 | 195 | CCCOC[C@H]1C(=O)N[C@@H]([C@@H](C)CC)C(=O)N(C)CC(=O)N(C)[C@H]2C/C=C\CCN(C2=O)[C@@H](CC2CCC(F)(F)CC2)C(=O)N(C)CC(=O)N[C@@H](CCc2ccc(C(F)(F)F)c(OC)c2)C(=O)N2C[C@@H](C)C[C@H]2C(=O)NC2(CC(C)(C)C2)C(=O)N(C)[C@@H](C(CC)CC)C(=O)N(C)[C@H](C(=O)N(C)C)CC(=O)N1C [PP2483] | A (a compound having 10 or more and less than 20 is denoted as A) | A (a compound having 10 or more and less than 20 is denoted as A) |
| 1 | 74.3 | CCCOC[C@H]1C(=O)N[C@@H]([C@@H](C)CC)C(=O)N(C)CC(=O)N(C)[C@H]2C/C=C\CCN(C2=O)[C@@H](CC2CCC(F)(F)CC2)C(=O)N(C)CC(=O)N[C@@H](CCc2ccc(C(F)(F)F)c(Cl)c2)C(=O)N2C[C@H](OCC)C[C@H]2C(=O)NC2(CC(C)(C)C2)C(=O)N(C)[C@@H](C(CC)CC)C(=O)N(C)[C@H](C(=O)N(C)C)CC(=O)N1C [PP2484] | A (a compound having 10 or more and less than 20 is denoted as A) | A (a compound having 10 or more and less than 20 is denoted as A) |
